Test results taken from ChEMBL document CHEMBL4622979, “Non-rigid Diarylmethyl Analogs of Baloxavir as Cap-Dependent Endonuclease Inhibitors of Influenza Viruses” (J Med Chem, 2020).
Calls of active or inactive are those of the source. The calls are words filed in the database; no cut-off is given here.

Key:
[1] = AUClast in CD1 mouse plasma assessed as baloxavir acid level at 15 mg/kg, po administered as single dose by LC-MS/MS analysis; assay type: ADME, organism-based; parameters: dose 15 mg/kg, route oral, time 0 - last; conditions: in vivo
[2] = Half life in CD1 mouse plasma assessed as baloxavir acid level at 15 mg/kg, po administered as single dose measured up to 24 hrs by LC-MS/MS analysis; assay type: ADME, organism-based; conditions: in vivo
[3] = AUClast in CD1 mouse plasma assessed as baloxavir acid level at 15 mg/kg, po administered as single dose measured up to 24 hrs by LC-MS/MS analysis; assay type: ADME, organism-based; parameters: time < 24 hr, dose 15 mg/kg, route oral; conditions: in vivo
[4] = Half life in CD1 mouse liver assessed as baloxavir acid level at 15 mg/kg, po administered as single dose measured up to 24 hrs by LC-MS/MS analysis; assay type: ADME, organism-based; conditions: in vivo
[5] = Cmax in CD1 mouse lung assessed as baloxavir acid level at 15 mg/kg, po administered as single dose measured up to 24 hrs by LC-MS/MS analysis; assay type: ADME, organism-based; parameters: dose 15 mg/kg, route oral; conditions: in vivo
[6] = Stability in simulated gastric fluid assessed as parent compound remaining at 1 uM measured after 4 hrs at pH 1.2 by LC-MS/MS analysis; assay type: physicochemical; conditions: read-out: Stability
[7] = Stability in simulated intestinal fluid assessed as parent compound remaining at 1 uM measured after 4 hrs at pH 1.2 by LC-MS/MS analysis; assay type: physicochemical; conditions: read-out: Stability
[8] = MRTlast in CD1 mouse spleen assessed as baloxavir acid level at 15 mg/kg, po administered as single dose measured up to 24 hrs by LC-MS/MS analysis; assay type: ADME, organism-based; conditions: in vivo
[9] = AUClast in CD1 mouse muscle assessed as baloxavir acid level at 15 mg/kg, po administered as single dose measured up to 24 hrs by LC-MS/MS analysis; assay type: ADME, organism-based, Muscle tissue; conditions: in vivo
[10] = Ratio of AUClast in CD1 mouse muscle to plasma assessed as baloxavir acid level at 15 mg/kg, po administered as single dose measured up to 24 hrs by LC-MS/MS analysis; assay type: ADME, organism-based; conditions: other tissue
[11] = Protein binding in human plasma at 1 uM measured after 4 hrs by LC-MS/MS analysis; assay type: ADME, cell-free; conditions: read-out: PPB (converted)
[12] = Protein binding in rat plasma at 1 uM measured after 4 hrs by LC-MS/MS analysis; assay type: ADME, cell-free; conditions: read-out: PPB (converted)
[13] = Protein binding in mouse plasma at 1 uM measured after 4 hrs by LC-MS/MS analysis; assay type: ADME, cell-free; conditions: read-out: PPB (converted)
Influenza A virus [14] = assay: (§1) Antiviral activity against Influenza A/California/04/2009 (H1N1)pdm09 infected in specific pathogen-free BALB/c mouse assessed as protection against virus-induced mouse death at 50 mg/kg, po administered via gavage immediately after infection and at 12 hrs post-infection measured on 16 days post-infection relative to control; assay type: functional
Influenza A virus [15] = assay: as §1, with “20” for “50”; assay type: functional
[16] = Toxicity in Influenza A/California/04/2009 (H1N1)pdm09 infected specific pathogen-free BALB/c mouse assessed as effect on body weight at 20 to 50 mg/kg, po administered via gavage immediately after infection and at 12 hrs post-infection measured after 10 days post-infection; assay type: organism-based; conditions: in vivo, 240 h
Influenza A virus [17] = assay: Antiviral activity against Influenza A/California/04/2009 (H1N1)pdm09 infected in specific pathogen-free BALB/c mouse assessed as reduction in virus titre in lung at 50 mg/kg, po administered via gavage immediately after infection and at 12 hrs post-infection measured 24 hrs post-infection; assay type: functional, organism-based
[18] = Cytotoxicity against human HepG2 cells assessed as reduction in cell viability measured after 24 hrs in presence of glucose by MTT assay; assay type: cell-based
[19] = Ratio of AUClast in CD1 mouse blood to plasma assessed as (12aR)-12-(Diphenylmethyl)-7-hydroxy-3,4,12,12a-tetrahydro-1H-[1,4]oxazino[3,4-c]pyrido[2,1-f ][1,2,4]triazine-6,8-dione level at 15 mg/kg, po administered as single dose measured up to 24 hrs by LC-MS/MS analysis; assay type: ADME, organism-based; conditions: in vivo
[20] = Ratio of AUClast in CD1 mouse liver to plasma assessed as (12aR)-12-(Diphenylmethyl)-7-hydroxy-3,4,12,12a-tetrahydro-1H-[1,4]oxazino[3,4-c]pyrido[2,1-f ][1,2,4]triazine-6,8-dione level at 15 mg/kg, po administered as single dose measured up to 24 hrs by LC-MS/MS analysis; assay type: ADME, organism-based; conditions: other tissue
[21] = Tmax in CD1 mouse kidney assessed as (12aR)-12-(Diphenylmethyl)-7-hydroxy-3,4,12,12a-tetrahydro-1H-[1,4]oxazino[3,4-c]pyrido[2,1-f ][1,2,4]triazine-6,8-dione level at 15 mg/kg, po administered as single dose measured up to 24 hrs by LC-MS/MS analysis; assay type: ADME, organism-based; conditions: in vivo
[22] = Ratio of AUClast in CD1 mouse heart to plasma assessed as (12aR)-12-(Diphenylmethyl)-7-hydroxy-3,4,12,12a-tetrahydro-1H-[1,4]oxazino[3,4-c]pyrido[2,1-f ][1,2,4]triazine-6,8-dione level at 15 mg/kg, po administered as single dose measured up to 24 hrs by LC-MS/MS analysis; assay type: ADME, organism-based; conditions: other tissue
[23] = Tmax in CD1 mouse small intestine assessed as (12aR)-12-(Diphenylmethyl)-7-hydroxy-3,4,12,12a-tetrahydro-1H-[1,4]oxazino[3,4-c]pyrido[2,1-f ][1,2,4]triazine-6,8-dione level at 15 mg/kg, po administered as single dose measured up to 24 hrs by LC-MS/MS analysis; assay type: ADME, organism-based; conditions: in vivo
[24] = Cmax in CD1 mouse small intestine assessed as (12aR)-12-(Diphenylmethyl)-7-hydroxy-3,4,12,12a-tetrahydro-1H-[1,4]oxazino[3,4-c]pyrido[2,1-f ][1,2,4]triazine-6,8-dione level at 15 mg/kg, po administered as single dose measured up to 24 hrs by LC-MS/MS analysis; assay type: ADME, organism-based; parameters: dose 15 mg/kg, route oral; conditions: in vivo
[25] = Cmax in CD1 mouse brain assessed as (12aR)-12-(Diphenylmethyl)-7-hydroxy-3,4,12,12a-tetrahydro-1H-[1,4]oxazino[3,4-c]pyrido[2,1-f ][1,2,4]triazine-6,8-dione level at 15 mg/kg, po administered as single dose measured up to 24 hrs by LC-MS/MS analysis; assay type: ADME, organism-based; parameters: dose 15 mg/kg, route oral; conditions: in vivo
[26] = AUClast in CD1 mouse brain assessed as (12aR)-12-(Diphenylmethyl)-7-hydroxy-3,4,12,12a-tetrahydro-1H-[1,4]oxazino[3,4-c]pyrido[2,1-f ][1,2,4]triazine-6,8-dione level at 15 mg/kg, po administered as single dose measured up to 24 hrs by LC-MS/MS analysis; assay type: ADME, organism-based; conditions: in vivo
[27] = Elimination rate constant in CD1 mouse spleen assessed as (12aR)-12-(Diphenylmethyl)-7-hydroxy-3,4,12,12a-tetrahydro-1H-[1,4]oxazino[3,4-c]pyrido[2,1-f ][1,2,4]triazine-6,8-dione level at 15 mg/kg, po administered as single dose measured up to 24 hrs by LC-MS/MS analysis; assay type: ADME, organism-based; conditions: in vivo
[28] = Half life in CD1 mouse spleen assessed as (12aR)-12-(Diphenylmethyl)-7-hydroxy-3,4,12,12a-tetrahydro-1H-[1,4]oxazino[3,4-c]pyrido[2,1-f ][1,2,4]triazine-6,8-dione level at 15 mg/kg, po administered as single dose measured up to 24 hrs by LC-MS/MS analysis; assay type: ADME, organism-based; conditions: in vivo

In the case of `COC(=O)OCOc1c2n(ccc1=O)N([C@@H]1c3ccccc3SCc3c1ccc(F)c3F)[C@@H]1COCCN1C2=O` [BALOXAVIR MARBOXIL], the AUClast [1] is reported as 715 ng·h/mL, the t1/2 [2] is reported as 3.8 h and the AUClast [3] is reported as 452 ng·h/mL. For the same compound, the t1/2 [4] was 2.57 h, the Cmax [5] was 1188 ng/g and the remaining at 4 h, 1 µM [6] was 101%. For the same compound, the remaining at 4 h, 1 µM [7] was 87.9%, the MRTlast [8] was 5.54 h and the AUClast [9] was 4716 ng·h/g. The “Ratio AUC” value [10] was 10.4, the fraction unbound at 4 h, 1 µM [11] was 0.057 and the fraction unbound at 4 h, 1 µM [12] was 0.064. The fraction unbound at 4 h, 1 µM [13] was 0.08, the Activity (Influenza A virus [14]) was 90% and the Activity (Influenza A virus [15]) was 80%. The Activity [16] was “Non-Toxic” and the Activity (Influenza A virus [17]) was “Active”.

In the case of `COC(=O)OCOc1c2n(ccc1=O)N(C(c1ccccc1)c1ccccc1)[C@@H]1COCCN1C2=O`, the CC50 at 24 h [18] is reported as 51 µM, the “Ratio AUC” value [19] is reported as 0.82 and the “Ratio AUC” value [20] is reported as 10.6. For the same compound, the Tmax [21] was 0.5 h, the “Ratio AUC” value [22] was 3.38 and the remaining at 4 h, 1 µM [6] was 94.8%. For the same compound, the remaining at 4 h, 1 µM [7] was 93.7%, the Tmax [23] was 0.5 h and the Cmax [24] was 24707 ng/g. For the same compound, the Cmax [25] was 98 ng/g, the AUClast [26] was 609 ng·h/g and the Kel [27] was 0.39 h⁻¹. For the same compound, the t1/2 [28] was 1.77 h, the fraction unbound at 4 h, 1 µM [11] was 0.01 and the fraction unbound at 4 h, 1 µM [12] was 0.016. It also gave a fraction unbound at 4 h, 1 µM [13] of 0.009, an Activity (Influenza A virus [14]) of 80% and an Activity (Influenza A virus [15]) of 80%. For the same compound, the Activity [16] was “Non-Toxic” and the Activity (Influenza A virus [17]) was “Active”.
